Source: ChEMBL document CHEMBL1255519, “The synthesis of paleic acid, an antimicrobial agent effective against Mannheimia and Pasteurella, and its structurally related derivatives” (2010)
Values after ≈ are worked out from the molar mass of the structure shown.

Tests used:
Type in all cases: functional
[1] = system: Mannheimia haemolytica; assay: Antimicrobial activity against Mannheimia haemolytica N791 after 17 hrs by serial agar dilution method; details: N791, 17 h
[2] = system: Mannheimia haemolytica; assay: Antimicrobial activity against Mannheimia haemolytica S801 after 17 hrs by serial agar dilution method
[3] = system: Pasteurella multocida; assay: Antimicrobial activity against Pasteurella multocida isolate 6 after 17 hrs by serial agar dilution method
[4] = system: Pasteurella multocida; assay: Antimicrobial activity against Pasteurella multocida Kobe after 17 hrs by serial agar dilution method
[5] = system: Pasteurella multocida; assay: Antimicrobial activity against Pasteurella multocida TS-8 after 17 hrs by serial agar dilution method
[6] = system: Pasteurella multocida; assay: Antimicrobial activity against Pasteurella multocida M-17 after 17 hrs by serial agar dilution method; details: M-17, 17 h
[7] = system: Actinobacillus pleuropneumoniae; assay: Antimicrobial activity against Actinobacillus pleuropneumoniae NB001 after 17 hrs by serial agar dilution method
[8] = system: Histophilus somni; assay: Antimicrobial activity against Histophilus somni 23N2359 after 17 hrs by serial agar dilution method; details: 23N2359, 17 h
[9] = system: Mannheimia haemolytica; assay: Antimicrobial activity against Mannheimia haemolytica N811 after 17 hrs by serial agar dilution method
[10] = Mannheimia haemolytica, S801, 17 h, read-out: MIC
[11] = Pasteurella multocida, isolate 6, 17 h, read-out: MIC
[12] = Pasteurella multocida, TS-8, 17 h, read-out: MIC
[13] = Actinobacillus pleuropneumoniae, NB001, 17 h, read-out: MIC
[14] = Mannheimia haemolytica, N811, 17 h, read-out: MIC

| SMILES | MIC [1] | MIC [2, 10] | MIC [3, 11] | MIC [4] | MIC [5, 12] | MIC [6] | MIC [7, 13] | MIC [8] | MIC [9, 14] | MIC [2] | MIC [3] | MIC [5] | MIC [7] | MIC [9] |
| --- | --- | --- | --- | --- | --- | --- | --- | --- | --- | --- | --- | --- | --- | --- |
| CC[C@H](O)CCCCC/C=C\CCCCCCCC(=O)O | 0.78 µg/mL (≈ 2.61 µM) | 0.39 µg/mL (≈ 1.31 µM) | 50 µg/mL (≈ 168 µM) | > 50 µg/mL | 6.25 µg/mL (≈ 20.9 µM) | > 50 µg/mL | 12.5 µg/mL (≈ 41.9 µM) | > 50 µg/mL | 0.78 µg/mL (≈ 2.61 µM) |  |  |  |  |  |
| CCC(=O)CCCCC/C=C\CCCCCCCC(=O)O | 3.13 µg/mL (≈ 10.6 µM) | 6.25 µg/mL (≈ 21.1 µM) | 50 µg/mL (≈ 169 µM) | > 50 µg/mL | 50 µg/mL (≈ 169 µM) | > 50 µg/mL | 6.25 µg/mL (≈ 21.1 µM) | > 50 µg/mL | 6.25 µg/mL (≈ 21.1 µM) |  |  |  |  |  |
| CC[C@@H](O)CCCCC/C=C\CCCCCCCC(=O)NS(C)(=O)=O | 50 µg/mL (≈ 133 µM) | 25 µg/mL (≈ 66.6 µM) | 50 µg/mL (≈ 133 µM) | > 50 µg/mL | 25 µg/mL (≈ 66.6 µM) | > 50 µg/mL | > 50 µg/mL | > 50 µg/mL | 50 µg/mL (≈ 133 µM) |  |  |  |  |  |
| CC[C@@H](O)CCCCC/C=C\CCCCCCCC(=O)O (stereo in doubt; 2) [PALEIC ACID] |  |  |  |  |  |  |  |  |  | 0.78 µg/mL (≈ 2.61 µM) | 12.5 µg/mL (≈ 41.9 µM) | 6.25 µg/mL (≈ 20.9 µM) | 6.25 µg/mL (≈ 20.9 µM) | 0.78 µg/mL (≈ 2.61 µM) |
| CC[C@@H](O)CCCCC/C=C\CCCCCCCC(N)=O | 25 µg/mL (≈ 84 µM) | 50 µg/mL (≈ 168 µM) | > 50 µg/mL | > 50 µg/mL | 50 µg/mL (≈ 168 µM) | > 50 µg/mL | > 50 µg/mL | > 50 µg/mL | 12.5 µg/mL (≈ 42 µM) |  |  |  |  |  |
| CC[C@@H](O)CCCCC/C=C\CCCCCCCc1nnn[nH]1 | 50 µg/mL (≈ 155 µM) | 50 µg/mL (≈ 155 µM) | 50 µg/mL (≈ 155 µM) | 50 µg/mL (≈ 155 µM) | 50 µg/mL (≈ 155 µM) | 50 µg/mL (≈ 155 µM) | 50 µg/mL (≈ 155 µM) | 50 µg/mL (≈ 155 µM) | 50 µg/mL (≈ 155 µM) |  |  |  |  |  |
| CC[C@@H](O)CCCCC/C=C\CCCCCCCC(=O)O (stereo in doubt; 1) [PALEIC ACID] | 0.78 µg/mL (≈ 2.61 µM) | 1.56 µg/mL (≈ 5.23 µM) | 6.25 µg/mL (≈ 20.9 µM) | > 50 µg/mL | 3.13 µg/mL (≈ 10.5 µM) | > 50 µg/mL | 6.25 µg/mL (≈ 20.9 µM) | > 50 µg/mL | 1.56 µg/mL (≈ 5.23 µM) |  |  |  |  |  |
| CC[C@@H](O)CCCCC/C=C\CCCCCCCC(=O)NO | 25 µg/mL (≈ 79.7 µM) | 50 µg/mL (≈ 159 µM) | 12.5 µg/mL (≈ 39.9 µM) | > 50 µg/mL | 50 µg/mL (≈ 159 µM) | > 50 µg/mL | 50 µg/mL (≈ 159 µM) | > 50 µg/mL | 25 µg/mL (≈ 79.7 µM) |  |  |  |  |  |
| CC/C(CCCCC/C=C\CCCCCCCC(=O)O)=N/O | 1.56 µg/mL (≈ 5.01 µM) | 1.56 µg/mL (≈ 5.01 µM) | 3.13 µg/mL (≈ 10 µM) | > 50 µg/mL | 25 µg/mL (≈ 80.3 µM) | > 50 µg/mL | 6.25 µg/mL (≈ 20.1 µM) | > 50 µg/mL | 1.56 µg/mL (≈ 5.01 µM) |  |  |  |  |  |
| CCC1(CCCCC/C=C\CCCCCCCC(=O)O)OCCO1 | 25 µg/mL (≈ 73.4 µM) | 25 µg/mL (≈ 73.4 µM) | > 50 µg/mL | 50 µg/mL (≈ 147 µM) | 25 µg/mL (≈ 73.4 µM) | > 50 µg/mL | > 100 µg/mL | > 50 µg/mL | 25 µg/mL (≈ 73.4 µM) |  |  |  |  |  |
